The target of the test is T1, recombinant N-terminal MLH1 (residues 15-340) (Homo sapiens, UniProt P40692).
T1 construct: recombinant N-terminal MLH1 (residues 15-340)
T1 sequence (P40692 15-340): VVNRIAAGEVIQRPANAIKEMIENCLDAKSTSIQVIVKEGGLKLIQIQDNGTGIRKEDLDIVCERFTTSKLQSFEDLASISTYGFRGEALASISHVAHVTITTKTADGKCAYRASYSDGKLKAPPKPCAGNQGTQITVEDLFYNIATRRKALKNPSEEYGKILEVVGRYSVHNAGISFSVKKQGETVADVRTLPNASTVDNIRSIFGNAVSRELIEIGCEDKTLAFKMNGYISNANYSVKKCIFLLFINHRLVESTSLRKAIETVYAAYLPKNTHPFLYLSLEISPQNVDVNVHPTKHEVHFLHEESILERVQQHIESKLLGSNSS
The experiment in a line: Fluorescence Polarisation Assay for MLH1. It is filed as binding. To be noted: 100 nM N-terminal MLH1, 5 nM probe compound. How it is done: Fluorescence Polarisation Assay for MLH1
Test compounds, as 10 mM DMSO stocks, were dispensed into a 384-well Low Flange Black Flat Bottom Polystyrene Non-binding Surface plate (Corning®, item number 3575) using a Labcyte Echo acoustic liquid handler. […] 20 μL of a 2× solution (200 nM) of recombinant N-terminal MLH1 (residues 15-340) in assay buffer (25 mM HEPES, pH 7.5, 250 mM NaCl, 10 mM MgCl2, 0.01% Triton X-100, 5 mM Dithiothreitol) was added to all wells in columns 1-23 and 20 μL assay buffer was added to all wells in column 24 using an E1-ClipTip pipette (ThermoFisher). Plates were centrifuged for 1 minute at 250 xg and were incubated at room temperature for 30 minutes prior to the addition of 20 μL of 2×(10 nM) of 5-((5-(4-((2-(2-(Benzyloxy)-4,6-dihydroxybenzoyl)isoindolin-5-yl)methyl)piperazin-1-yl)pentyl)carbamoyl)-2-(6-(dimethylamino)-3-(dimethyliminio)-3H-xanthen-9-yl)benzoate (referred to hereinafter as “probe compound”) in assay buffer (prepared from a 1 mM DMSO stock) with an E1-ClipTip pipette (ThermoFisher). The final concentration of N-terminal MLH1 was 100 nM and the final concentration of the probe compound was 5 nM. Compound plates were centrifuged for 1 minute at 250 xg for 1 minute and immediately read on a PheraStar FSX (fitted with 384-well aperture spoon and 590 675 675 FP optic module). The gain and focus were adjusted before each plate was read so that the polarisation of a no enzyme control (column 24) was equal to 35 mP. Data were normalised against the no inhibitor controls (column 23) and no enzyme controls (column 24).

Consider 25 compounds from patent US20260217687A1 (NeoPhore Limited, priority 2023, published 2026).

Take `CN1CC[C@H](Nc2cccc3c2CN(C(=O)c2c(O)cc(C(F)F)cc2OCc2ccccc2)CC3)C1=O` [Example 4.13, (S)-3-((2-(2-(benzyloxy)-4-(difluoromethyl)-6-hydroxybenzoyl)-1,2,3,4-tetrahydroisoquinolin-8-yl)amino)-1-methylpyrrolidin-2-one]: the IC50 (in general, the midpoint of a concentration-inhibition curve) was 100 to 1000 nM.
The figure for `CN1CC[C@@H](Nc2cccc3c2CN(C(=O)c2c(O)cc(C(F)F)cc2OCc2ccccc2)C3)C1=O` [Example 4.14, (R)-3-((2-(2-(Benzyloxy)-4-(difluoromethyl)-6-hydroxybenzoyl)isoindolin-4-yl)amino)-1-methylpyrrolidin-2-one] is 100 to 1000 nM.
For `CN1CC[C@@H](Nc2cccc3c2CN(C(=O)c2c(O)cc(C(F)F)cc2OCc2ccccc2)CC3)C1=O` [Example 4.15, (R)-3-((2-(2-(Benzyloxy)-4-(difluoromethyl)-6-hydroxybenzoyl)-1,2,3,4-tetrahydroisoquinolin-8-yl)amino)-1-methylpyrrolidin-2-one], the concentration for half-maximal inhibition (IC50) lay within 100 to 1000 nM.
As for `O=C1OCCC1Nc1cccc2c1CN(C(=O)c1c(O)cc(C(F)F)cc1OCc1ccccc1)C2` (stereo not shown) [Example 4.16, 3-((2-(2-(Benzyloxy)-4-(difluoromethyl)-6-hydroxybenzoyl)isoindolin-4-yl)amino)dihydrofuran-2(3H)-one], the figure is 100 to 1000 nM; as for `O=C1OCCC1Nc1cccc2c1CN(C(=O)c1c(O)cc(C(F)F)cc1OCc1ccccc1)CC2` (stereo not shown) [Example 4.17, 3-((2-(2-(Benzyloxy)-4-(difluoromethyl)-6-hydroxybenzoyl)-1,2,3,4-tetrahydroisoquinolin-8-yl)amino) dihydrofuran-2(3H)-one], 100 to 1000 nM.
As for `COc1cc2c(c(N[C@H]3CCOC3)c1)CN(C(=O)c1c(O)cc(C(F)F)cc1OCc1ccccc1)C2` [Example 4.18, (S)-(2-(Benzyloxy)-4-(difluoromethyl)-6-hydroxyphenyl)(6-methoxy-4-((tetrahydrofuran-3-yl)amino)isoindolin-2-yl)methanone], the figure is 100 to 1000 nM; as for `O=C(c1c(O)cc(C(F)F)cc1OCc1ccccc1)N1Cc2cc(Cn3ccnc3)cc(N[C@H]3CCOC3)c2C1` [Example 4.19, (S)-(6-((1H-Imidazol-1-yl)methyl)-4-((tetrahydrofuran-3-yl)amino)isoindolin-2-yl) (2-(benzyloxy)-4-(difluoromethyl)-6-hydroxyphenyl)methanone], 100 to 1000 nM.
For the compound `COc1cc2c(c(N[C@H]3CCOC3)c1)CN(C(=O)c1c(O)cc(C(F)F)cc1OCc1ccccc1)CC2` [Example 4.20, (S)-(2-(Benzyloxy)-4-(difluoromethyl)-6-hydroxyphenyl)(6-methoxy-8-((tetrahydrofuran-3-yl)amino)-3,4-dihydroisoquinolin-2(1H)-yl)methanone], the concentration for half-maximal inhibition (IC50) fell in the range of 100 to 1000 nM.
For the compound `CN(C)Cc1cc2c(c(N[C@H]3CCOC3)c1)CN(C(=O)c1c(O)cc(C(F)F)cc1OCc1ccccc1)CC2` [Example 4.21, (S)-(2-(Benzyloxy)-4-(difluoromethyl)-6-hydroxyphenyl)(6-((dimethylamino)methyl)-8-((tetrahydrofuran-3-yl)amino)-3,4-dihydroisoquinolin-2(1H)-yl)methanone], the IC50 is less than 100 nM.
The figure for `O=C(c1c(O)cc(C(F)F)cc1OCc1ccccc1)N1CCc2cc(Cn3ccnc3)cc(N[C@H]3CCOC3)c2C1` [Example 4.22, (S)-(6-((1H-Imidazol-1-yl)methyl)-8-((tetrahydrofuran-3-yl)amino)-3,4-dihydroisoquinolin-2(1H)-yl)(2-(benzyloxy)-4-(difluoromethyl)-6-hydroxyphenyl)methanone] is less than 100 nM.
The figure for `COc1ccc2c(c1N[C@H]1CCOC1)CN(C(=O)c1c(O)cc(C(F)F)cc1OCc1ccccc1)CC2` [Example 4.23, (S)-(2-(Benzyloxy)-4-(difluoromethyl)-6-hydroxyphenyl)(7-methoxy-8-((tetrahydrofuran-3-yl)amino)-3,4-dihydroisoquinolin-2(1H)-yl)methanone] is 1000 to 10000 nM.
As for `Cn1cncc1-c1cc2c(c(N[C@H]3CCOC3)c1)CN(C(=O)c1c(O)cc(C(F)F)cc1OCc1ccccc1)C2` [Example 4.24, (S)-(2-(Benzyloxy)-4-(difluoromethyl)-6-hydroxyphenyl)(6-(1-methyl-1H-imidazol-5-yl)-4-((tetrahydrofuran-3-yl)amino)isoindolin-2-yl)methanone], the figure is 100 to 1000 nM; as for `Cn1cnc(-c2cc3c(c(N[C@H]4CCOC4)c2)CN(C(=O)c2c(O)cc(C(F)F)cc2OCc2ccccc2)C3)c1` [Example 4.25, (S)-(2-(Benzyloxy)-4-(difluoromethyl)-6-hydroxyphenyl)(6-(1-methyl-1H-imidazol-4-yl)-4-((tetrahydrofuran-3-yl)amino)isoindolin-2-yl)methanone], 100 to 1000 nM.
With `Cn1cncc1-c1cc2c(c(N[C@H]3CCOC3)c1)CN(C(=O)c1c(O)cc(C(F)F)cc1OCc1ccccc1)CC2` [Example 4.26, (S)-(2-(Benzyloxy)-4-(difluoromethyl)-6-hydroxyphenyl) (6-(1-methyl-1H-imidazol-5-yl)-8-((tetrahydrofuran-3-yl)amino)-3,4-dihydroisoquinolin-2(1H)-yl)methanone], the half-maximal inhibitory concentration (IC50) was in the range of 100 to 1000 nM.
The figure for `Cn1cnc(-c2cc3c(c(N[C@H]4CCOC4)c2)CN(C(=O)c2c(O)cc(C(F)F)cc2OCc2ccccc2)CC3)c1` [Example 4.27, (S)-(2-(Benzyloxy)-4-(difluoromethyl)-6-hydroxyphenyl) (6-(1-methyl-1H-imidazol-4-yl)-8-((tetrahydrofuran-3-yl)amino)-3,4-dihydroisoquinolin-2(1H)-yl)methanone] is 100 to 1000 nM; for `COCCNc1cccc2c1CN(C(=O)c1c(O)cc(C(F)F)cc1OCc1ccccc1)C2` [Example 4.28, (2-(Benzyloxy)-4-(difluoromethyl)-6-hydroxyphenyl) (4-((2-methoxyethyl)amino)isoindolin-2-yl)methanone] it is 100 to 1000 nM.
Consider `CN(C)C(=O)CNc1cccc2c1CN(C(=O)c1c(O)cc(C(F)F)cc1OCc1ccccc1)C2` [Example 4.29, 2-((2-(2-(Benzyloxy)-4-(difluoromethyl)-6-hydroxybenzoyl)isoindolin-4-yl)amino)-N, N-dimethylacetamide], for which the 50% inhibitory concentration (IC50) lay within 100 to 1000 nM.
For `CN1CCN(Cc2ccc3c(c2)CN(C(=O)c2c(O)cc(C(F)F)cc2OCc2ccccc2)C3)CC1` [Example 4.30, (2-(Benzyloxy)-4-(difluoromethyl)-6-hydroxyphenyl) (5-((4-methylpiperazin-1-yl)methyl)isoindolin-2-yl) methanone], the concentration for half-maximal inhibition (IC50) was 100 to 1000 nM.
Consider `CN(C)CCOc1ccc2c(c1)CN(C(=O)c1c(O)cc(C(F)F)cc1OCc1ccccc1)C2` [Example 4.31, (2-(Benzyloxy)-4-(difluoromethyl)-6-hydroxyphenyl)(5-(2-(dimethylamino)ethoxy)isoindolin-2-yl)methanone], for which the 50% inhibitory concentration (IC50) is 100 to 1000 nM.
The figure for `CN1CC(Nc2cccc3c2CN(C(=O)c2c(O)cc(C(F)F)cc2OCc2ccccc2)C3)C1` [Example 4.33] is 100 to 1000 nM; for `CNc1cccc2c1CN(C(=O)c1c(O)cc(C(F)F)cc1OCc1ccccc1)C2` [Example 4.34, (2-(Benzyloxy)-4-(difluoromethyl)-6-hydroxyphenyl) (4-(methylamino)isoindolin-2-yl) methanone] it is 1000 to 10000 nM.
Turning to `O=C(c1c(O)cc(C(F)F)cc1OCc1ccccc1)N1CCc2ccccc2C1` [Example 4.35, (2-(Benzyloxy)-4-(difluoromethyl)-6-hydroxyphenyl)(3,4-dihydroisoquinolin-2(1H)-yl)methanone], the IC50 lay within 1000 to 10000 nM.
Regarding `CNc1cccc2c1CN(C(=O)c1c(O)cc(C(F)F)cc1OCc1ccccc1)CC2` [Example 4.36, (2-(Benzyloxy)-4-(difluoromethyl)-6-hydroxyphenyl)(8-(methylamino)-3,4-dihydroisoquinolin-2(1H)-yl)methanone], the IC50 was 1000 to 10000 nM.
In the case of `COCCNc1cccc2c1CN(C(=O)c1c(O)cc(C(F)F)cc1OCc1ccccc1)CC2` [Example 4.37, (2-(Benzyloxy)-4-(difluoromethyl)-6-hydroxyphenyl)(8-((2-methoxyethyl)amino)-3,4-dihydroisoquinolin-2(1H)-yl)methanone], the IC50 was in the range of 1000 to 10000 nM.
Consider `COc1ccc2c(c1)CN(C(=O)c1c(O)cc(C(F)F)cc1OCc1ccccc1)CC2` [Example 4.38, (2-(Benzyloxy)-4-(difluoromethyl)-6-hydroxyphenyl)(7-methoxy-3,4-dihydroisoquinolin-2(1H)-yl)methanone], for which the concentration for half-maximal inhibition (IC50) lay within 1000 to 10000 nM.
